Where a chain is given by its changes, count along the chain named.
Experiments:
Assay type in all cases: cell-based
[1] = target: T1, α-Gal A mutant form N408Y (Homo sapiens, UniProt P06280, N408Y); experiment: α-Gal A activity in lysates of transfected HEK-293 cells, N408Y
T1 construct: expressed in transfected cells; host or cells: HEK-293
T1 sequence (P06280 32-429 N408Y): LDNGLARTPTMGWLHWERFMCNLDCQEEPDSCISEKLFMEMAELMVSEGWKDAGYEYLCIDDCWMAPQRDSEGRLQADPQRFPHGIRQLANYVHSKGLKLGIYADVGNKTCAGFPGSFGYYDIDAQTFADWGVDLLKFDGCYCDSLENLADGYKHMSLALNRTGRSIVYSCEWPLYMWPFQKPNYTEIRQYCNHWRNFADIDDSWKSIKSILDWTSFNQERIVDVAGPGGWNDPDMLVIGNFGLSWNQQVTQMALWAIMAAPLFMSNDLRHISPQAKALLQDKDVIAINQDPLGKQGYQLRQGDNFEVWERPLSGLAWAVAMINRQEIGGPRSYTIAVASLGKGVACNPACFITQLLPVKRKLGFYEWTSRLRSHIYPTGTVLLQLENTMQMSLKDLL
Description: (§1) Baseline and 10 μM migalastat α-Gal A activity: Differences in the α-Gal A activity between lysates incubated in the absence and presence of 10 μM migalastat were determined using a one-tailed, Mann Whitney U test; an increase at 10 μM migalastat with a p<0.05 was considered significant.
(§2) 10 μM migalastat α-Gal A activity (% WT)=(α-Gal A activity in mutant transfected cell lysates incubated with 10 μM migalastat÷α-Gal A activity in wild-type transfected cell lysates without migalastat)*100.
(§3) Absolute increase (% WT)=is the 10 μM migalastat α-Gal A activity (% WT) minus the baseline α-Gal A activity (% WT).
(§4) Relative increase is the 10 μM migalastat α-Gal A activity in mutant transfected cell lysates÷baseline α-Gal A activity in mutant transfected cell lysates incubated without migalastat.

[2] = target: T2, α-Gal A mutant form A257V (Homo sapiens, UniProt P06280, A257V); experiment: α-Gal A activity in lysates of transfected HEK-293 cells, A257V
T2 construct: expressed in transfected cells; host or cells: HEK-293
T2 sequence (P06280 32-429 A257V): T1 sequence (P06280 32-429 N408Y) with A226V, Y377N
Description: as §1, §2, §3, §4

α-Gal A mutant form Q57R = target: T3, α-Gal A mutant form Q57R (Homo sapiens, UniProt P06280, Q57R); experiment: α-Gal A activity in lysates of transfected HEK-293 cells, Q57R
T3 construct: expressed in transfected cells; host or cells: HEK-293
T3 sequence (P06280 32-429 Q57R): T1 sequence (P06280 32-429 N408Y) with Q26R, Y377N
Description: as §1, §2, §3, §4

[3] = target: T4, α-Gal A mutant form A156S (Homo sapiens, UniProt P06280, A156S); experiment: α-Gal A activity in lysates of transfected HEK-293 cells, A156S
T4 construct: expressed in transfected cells; host or cells: HEK-293
T4 sequence (P06280 32-429 A156S): T1 sequence (P06280 32-429 N408Y) with A125S, Y377N
Description: as §1, §2, §3, §4

[4] = target: T5, α-Gal A mutant form Q107R (Homo sapiens, UniProt P06280, Q107R); experiment: α-Gal A activity in lysates of transfected HEK-293 cells, Q107R
T5 construct: expressed in transfected cells; host or cells: HEK-293
T5 sequence (P06280 32-429 Q107R): T1 sequence (P06280 32-429 N408Y) with Q76R, Y377N
Description: as §1, §2, §3, §4

[5] = 10 μM migalastat minus baseline
[6] = 10 μM migalastat ÷ baseline activity
[7] = HEK-293 lysates, 10 μM migalastat, 5 days, mean ± SEM

Absolute increase (% WT) [1, 5]: 44.6 % WT | Relative increase [1, 6]: 2.09 | 10 μM migalastat α-Gal A activity [1, 7]: 23273 ± 2965 nmol/mg/h | 10 μM migalastat α-Gal A activity (% WT) [1, 7]: 85.5 ± 7.7 % WT | Absolute increase (% WT) [2, 5]: 44.4 % WT | Relative increase [2, 6]: 1.85 | 10 μM migalastat α-Gal A activity [2, 7]: 30313 ± 1981 nmol/mg/h | 10 μM migalastat α-Gal A activity (% WT) [2, 7]: 99.9 ± 4.6 % WT | Absolute increase (% WT) (α-Gal A mutant form Q57R; [5]): 24.0 % WT | Relative increase (α-Gal A mutant form Q57R; [6]): 1.30 | 10 μM migalastat α-Gal A activity (α-Gal A mutant form Q57R; [7]): 26357 ± 916 nmol/mg/h | 10 μM migalastat α-Gal A activity (% WT) (α-Gal A mutant form Q57R; [7]): 105.0 ± 3.0 % WT | Absolute increase (% WT) [3, 5]: 18.4 % WT | Relative increase [3, 6]: 1.29 | 10 μM migalastat α-Gal A activity [3, 7]: 31597 ± 2293 nmol/mg/h | 10 μM migalastat α-Gal A activity (% WT) [3, 7]: 85.1 ± 53 % WT | Absolute increase (% WT) [4, 5]: 21.5 % WT | Relative increase [4, 6]: 1.27 | 10 μM migalastat α-Gal A activity [4, 7]: 31193 ± 2248 nmol/mg/h | 10 μM migalastat α-Gal A activity (% WT) [4, 7]: 109.8 ± 8.4 % WT
Compound: OC[C@H]1NC[C@H](O)[C@@H](O)[C@H]1O [migalastat, (2R,3S,4R,5S)-2-(hydroxymethyl) piperdine-3,4,5-triol]

Source: patent publication US12594268B2, “Methods of treating Fabry disease in patients having a mutation in the GLA gene” (Amicus Therapeutics, Inc., priority 2018, dated 2026)
